Data reported in ChEMBL document CHEMBL1201862, “PubChem BioAssay data set” (2004).
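Method: 48-hour compound exposure of cells in 96-well plates, five concentrations, linear interpolation of endpoints. GI50 is the concentration that inhibits growth by half.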 The source made the active and inactive calls. No stated cut-off is given here; in the data, active = GI50 up to about 1.1 µM and inactive = higher.

Columns and labels:
Test in all cases: inhibition of tumour cell growth, NCI panel, 48 h
M14 = tested on: M14
HCT-15 = tested on: HCT-15
OVCAR-3 = tested on: OVCAR-3
NCI-H460 = tested on: NCI-H460
SK-OV-3 = tested on: SK-OV-3
UACC-62 = tested on: UACC-62
SNB-75 = tested on: SNB-75
SK-MEL-5 = tested on: SK-MEL-5
HOP-62 = tested on: HOP-62
NCI/ADR-RES = tested on: NCI/ADR-RES
PC-3 = tested on: PC-3
SF-268 = tested on: SF-268
MOLT-4 = tested on: MOLT-4
OVCAR-4 = tested on: OVCAR-4
SK-MEL-28 = tested on: SK-MEL-28
K562 = tested on: K562
HT-29 = tested on: HT-29
CCRF-CEM = tested on: CCRF-CEM
HOP-92 = tested on: HOP-92
SR = tested on: SR

| SMILES | GI50 (M14) | GI50 (HCT-15) | GI50 (OVCAR-3) | GI50 (NCI-H460) | GI50 (SK-OV-3) | GI50 (UACC-62) | GI50 (SNB-75) | GI50 (SK-MEL-5) | GI50 (HOP-62) | GI50 (NCI/ADR-RES) | GI50 (PC-3) | GI50 (SF-268) | GI50 (MOLT-4) | GI50 (OVCAR-4) | GI50 (SK-MEL-28) | GI50 (K562) | GI50 (HT-29) | GI50 (CCRF-CEM) | GI50 (HOP-92) | GI50 (SR) |
| --- | --- | --- | --- | --- | --- | --- | --- | --- | --- | --- | --- | --- | --- | --- | --- | --- | --- | --- | --- | --- |
| CN(C)c1ccc(/C=N/CC2CCCN3CCCCC23)cc1 (stereo unspecified) | > 100 µM (inactive) | > 100 µM | > 100 µM (inactive) | > 100 µM (inactive) | > 100 µM (inactive) | > 100 µM (inactive) | > 100 µM (inactive) | 58.7 µM (inactive) | > 100 µM (inactive) | > 100 µM (inactive) | > 100 µM (inactive) | > 100 µM (inactive) | – | – | – | – | – | – | – | – |
| O=c1ccn(-c2ccccn2)c(=O)n1-c1ccccn1 | > 100 µM (inactive) | > 100 µM | > 100 µM (inactive) | > 100 µM (inactive) | > 100 µM (inactive) | – | > 100 µM (inactive) | > 100 µM (inactive) | > 100 µM (inactive) | > 100 µM (inactive) | > 100 µM (inactive) | > 100 µM (inactive) | > 100 µM (inactive) | > 100 µM (inactive) | > 100 µM (inactive) | > 100 µM (inactive) | > 100 µM (inactive) | > 100 µM (inactive) | > 100 µM (inactive) | – |
| CN(/N=C/C=N/N(C)C1=NCCCCN1)C1=NCCCCN1 | > 100 µM (inactive) | > 100 µM | > 100 µM (inactive) | > 100 µM (inactive) | > 100 µM (inactive) | > 100 µM (inactive) | > 100 µM (inactive) | > 100 µM (inactive) | > 100 µM (inactive) | > 100 µM (inactive) | > 100 µM (inactive) | > 100 µM (inactive) | > 100 µM (inactive) | > 100 µM (inactive) | > 100 µM (inactive) | > 100 µM (inactive) | > 100 µM (inactive) | > 100 µM (inactive) | – | > 100 µM (inactive) |
| O=C(O)CCc1ccc2c(c1)C(=O)CC2 | > 100 µM (inactive) | > 100 µM | > 100 µM (inactive) | > 100 µM (inactive) | > 100 µM (inactive) | > 100 µM (inactive) | – | > 100 µM (inactive) | > 100 µM (inactive) | > 100 µM (inactive) | – | > 100 µM (inactive) | > 100 µM (inactive) | > 100 µM (inactive) | > 100 µM (inactive) | > 100 µM (inactive) | > 100 µM (inactive) | > 100 µM (inactive) | – | > 100 µM (inactive) |
| O=c1[nH]c2ccccc2c(=O)c2cc3ccccc3cc12 | 45.3 µM (inactive) | 74.8 µM | 22.7 µM (inactive) | 16.4 µM (inactive) | 11.8 µM (inactive) | 41.6 µM (inactive) | 3.92 µM (inactive) | 49.2 µM (inactive) | 10.4 µM (inactive) | 26.6 µM (inactive) | > 100 µM (inactive) | 3.42 µM (inactive) | 92.9 µM (inactive) | 23.4 µM (inactive) | 67 µM (inactive) | > 100 µM (inactive) | > 100 µM (inactive) | 51.5 µM (inactive) | 3.9 µM (inactive) | – |
| CC1(C)OC[C@@]2([C@@H]3CC[C@@H](C3)C2(C)C)N1O | > 100 µM (inactive) | > 100 µM | > 100 µM (inactive) | > 100 µM (inactive) | > 100 µM (inactive) | > 100 µM (inactive) | > 100 µM (inactive) | > 100 µM (inactive) | > 100 µM (inactive) | > 100 µM (inactive) | 55.8 µM (inactive) | > 100 µM (inactive) | > 100 µM (inactive) | > 100 µM (inactive) | 46.9 µM (inactive) | > 100 µM (inactive) | > 100 µM (inactive) | > 100 µM (inactive) | 27.4 µM (inactive) | – |
| O=C1N2CCC[C@H]2CS1(=O)=O | 14.6 µM (inactive) | 12.6 µM | 15.8 µM (inactive) | 32.7 µM (inactive) | 36.6 µM (inactive) | 16.4 µM (inactive) | 18.6 µM (inactive) | 17.5 µM (inactive) | 16.1 µM (inactive) | 30 µM (inactive) | 16.5 µM (inactive) | 20.7 µM (inactive) | 3.34 µM (inactive) | 11.8 µM (inactive) | 18.4 µM (inactive) | 5.62 µM (inactive) | 28.5 µM (inactive) | 2.3 µM (inactive) | 10.9 µM (inactive) | – |
| CSc1c(C#N)c(S)n(-c2ccc(Cl)cc2)c(=O)c1C#N | > 100 µM (inactive) | 74.1 µM | > 100 µM (inactive) | > 100 µM (inactive) | > 100 µM (inactive) | 51.2 µM (inactive) | > 100 µM (inactive) | 83.9 µM (inactive) | – | 39.8 µM (inactive) | 76.9 µM (inactive) | > 100 µM (inactive) | 44.2 µM (inactive) | 46.1 µM (inactive) | > 100 µM (inactive) | 63 µM (inactive) | 99.3 µM (inactive) | 32.5 µM (inactive) | – | 33 µM (inactive) |
